Measurements published in patent US20260258084A1, “New Peptides as Selective IL-23 Receptor Antagonists” (Sanofi, priority 2022, published 2026).
Values after ≈ are worked out from the molar mass of the structure shown. Like-named read-outs stand apart in the source and are kept apart here. Starred links: 1 amine or outer side, 2 acyl side, 3 side chain; linkers in the order of their positions; H or OH if unused. Positions of bridges follow the written chain, without caps; N, C: chain ends. Non-standard residues stand in square brackets, D forms with d. Residues, ends and D or L forms follow the SMILES beside them. Groups on a side chain read outwards from the residue. *: point of attachment. Trp(7-Me) = Cc1cccc2c(C[C@H](N)C(=O)O)c[nH]c12; C18 diacid = O=C(O)CCCCCCCCCCCCCCCCC(=O)*; γGlu = O=C(O)[C@H](CCC(=O)[*:2])N[*:1]; 2Nal = N[C@@H](Cc1ccc2ccccc2c1)C(=O)O; 3Pal = N[C@@H](Cc1cccnc1)C(=O)O; αMeL = CC(C)C[C@](C)(N)C(=O)O; Suc = O=C(CCC(=O)[*:2])[*:1]; AEEA = NCCOCCOCC(=O)O; Me2NCH2CH2 = CN(C)CC*; Aib = CC(C)(N)C(=O)O; Ava = NCCCCC(=O)O; Sar = CNCC(=O)O

Columns and labels:
[1] = tested on: IL-23 induced STAT3 signaling in HEK-Blue™ IL-23 cells; assay: IL-23 induced STAT3 signaling in HEK-Blue IL-23 cells (SEAP reporter); format: cell-based; conditions: human IL23 0.25 ng/ml, read-out: pSTAT3
Description: HEK-Blue™ IL-23 cells (Invivogen) are designed for the detection of bioactive human (hIL-23) and murine IL-23 (mIL-23) by monitoring the activation of the STAT3 pathway. Binding of IL-23 to its receptor on the surface of HEK-Blue™ IL-23 cells triggers a signalling cascade leading to the activation of STAT3 and the subsequent production of secreted embryonic alkaline phosphatase (SEAP). This can be readily assessed using QUANTI-Blue™ Solution, a SEAP detection reagent.
HEK-Blue™ IL-23 cells were cultured as described by Invivogen.
On the first day of assay 10 μL of the HEK-Blue IL23 cell suspension (final concentration: 10,000 cells/well) and 10 μl of serially diluted peptides solutions were dispensed into a 384-well assay plate. After pre-incubation of the reaction mixtures at 37° C./5% CO2/95% humidity for 60 minutes, 10 μl of the human IL23 cytokine (final concentration: 0.25 ng/ml) was added to each well for the STAT3 signalling activation. The plate was incubated overnight at 37° C./5% CO2/95% humidity.
On the second day 20 μl per well of Quanti-Blue detection solution (prepared according to the manufacture instruction) was dispensed into a new 384-well plate and followed by the transfer of 5 μl supernatant of the overnight incubated cell/sample mixtures. After incubation of 45 min at room temperature signals were measured with PHERAstar (BMG) at OD 620-655 nm. Dose response data were fitted with XLfit.

[2] = Solubility testing of peptides at different pH; format: physicochemical; conditions: target concentration 1 mg/ml, 2 hours agitation
Method: Prior to the solubility measurement of a synthesized peptide batch, its purity was determined through UPLC/MS (methods B-G).
For solubility testing the target concentration was 1 mg pure compound/ml. Therefore, solutions from solid samples were prepared in a buffer system at a concentration of 1 mg/mL compound. The solid samples were obtained by drying down aliquots of a dimethyl sulfoxide stock solution using a Thermo Speedvac vacuum centrifuge. The dry down time was 3 hours. • Solubility buffer system A) 50 mM HCl pH 1.2 • Solubility buffer system B) 50 mM phosphate buffer pH 6.5 • Solubility buffer system C) 50 mM phosphate buffer pH 7.4 • Solubility buffer system D) 50 mM phosphate buffer pH 9.0
UPLC-UV (Method A) was performed after 2 hours of gentle agitation from the filtered (0.45 μm filter plates) solutions, which was obtained by 10 mins of centrifugation forced filtration at 1500 RCF (relative centrifugal acceleration).
The solubility was determined by the comparison of the UV peak area of 2 μL-injections of a buffered sample diluted 1:5 with a standard curve of a dimethyl sulfoxide reference sample of the diluted in dimethyl sulfoxide with known concentration. The different extinction coefficients were taken into account for the calculation.

[3] = Chemical stability assessment of peptides (relative purity loss); format: physicochemical; conditions: 24 hours at 37° C.; for Chemical stability (relative purity loss) Buffer pH 1.2: 50 mM HCl pH 1.2 + acetonitrile (1:1); for Chemical stability (relative purity loss) Buffer pH 6.5: 50 mM phosphate buffer pH 6.5 + acetonitrile (1:1); for Chemical stability (relative purity loss) Buffer pH 7.4: 50 mM phosphate buffer pH 7.4 + acetonitrile (1:1)
Method: Purity of a peptide batch was determined through UPLC/MS (Methods B-G) prior to chemical stability measurement. The target concentration was 1 mg/ml pure compound. Solutions from solid samples were prepared in the following buffer systems with a concentration of 1 mg/ml compound based on the previously determined % purity: • Solubility buffer system A) 50 mM HCl pH 1.2+Acetonitrile (1:1) • Solubility buffer system B) 50 mM phosphate buffer pH 6.5+Acetonitrile (1:1) • Solubility buffer system C) 50 mM phosphate buffer pH 7.4+Acetonitrile (1:1)
Prepared solutions were stored for 24 hours at 2° C. and 37° C. After this time course, the samples were centrifuged for 15 min at 2500 RCF to create a 1:5 dilution of the supernatant. Then 2 μl of the dilution were analysed with UHPLC-UV.
The chemical stability was rated through the relative loss of purity calculated by the equation:
[(purity after 0 hours at 37° C.)−(purity after 24 hours at 37° C.)]/(purity after 0 hours at 37° C.)]*100%
The purity is calculated as [(peak area peptide)/(total peak area)]*100%.

Pepsin = tested on: T1, Pepsin; assay: Protease stability in simulated gastric fluid (Pepsin-SGF, FaSSGF); format: in vitro ADME; conditions: simulated gastric fluid with pepsin (Pepsin-SGF), 60 min, 1 μM peptide, 37° C., read-out: FaSSGF 60 (min), remaining percent of peptide
T1 construct: purchased Merck Millipore
Method: (§1) Studies were carried out in simulated intestinal fluid (SIF) and simulated gastric fluid (SGF) to evaluate gastric stability of the peptide compounds disclosed herein.
For clarification the term “Pepsin-SGF” refers to a solution of simulated gastric fluid containing pepsin whereas “SGF media” refers to a solution of simulated gastric fluid without pepsin. Pepsin-SGF was prepared by dissolving 320 mg Pepsin (Merck Millipore) in 100 mL SGF media concentrate (ProSense).
(§2) Peptides were first dissolved at 1 mM stock concentration in 0.01 HCl (+/−10% of DMSO) and were than diluted further with water to a stock concentration of 20 μM. Final peptide concentration in the incubation was 1 μM.
(§3) To 76 μL of the Pepsin-SGF buffer, 4 μL of the 20 μM peptide stock solution was added and incubated at 37° C. At each timepoint (0, 60, 120 and 240 minutes) the reaction was quenched with addition of 80 μL Ethanol (0.1% HCOOH). The samples were centrifuged for 20 minutes and an aliquot of the supernatant 100 μL were transferred to a LoBind-MTP plate and analyzed by LCMS/MS. The peak area response was calculated at each time point for each test compound. As internal reference, the peak area response of the same test compound at TO was calculated. The percent remaining at each timepoint was calculated based on the peak area response ratio of the test compound at TO. Time 0 was set to 100%, and all later timepoints were calculated relative to time 0.

Pancreatin = assay: Protease stability in simulated intestinal fluid (Pancreatin-SIF, FaSSIF); format: in vitro ADME; conditions: 1 μM peptide, 37° C.; for remaining at 1 h, 1 µM: 60 min, read-out: FaSSIF 60 (min), remaining percent of peptide; for remaining at 2 h, 1 µM: 120 min, read-out: FaSSIF 120 (min), remaining percent of peptide; for remaining at 4 h, 1 µM: 240 min, read-out: FaSSIF 240 (min), remaining percent of peptide
Method: as §1
Similarly, the term “Pancreatin-SIF” refers to a solution of simulated intestinal fluid containing pancreatin whereas “SIF-media” refers to a solution of simulated intestinal fluid without pancreatin.
Pancreatin-SIF was prepared by dissolving 1 mg Pancreatin (MP Biomedicals) in 10 mL SIF media concentrate (ProSense).
as §2
as §3, with “µM” for “μM”

[4] = target: T2, human interleukin-23 receptor (recombinant human IL-23R-Fc chimera) (Homo sapiens, UniProt Q5VWK5); assay: Human ELISA IL23/IL23R (assay for specific human IL23R antagonists); format: binding; conditions: Table 10; read-out: Human ELISA IL23/IL23R IC50
T2 construct: Fc (IgG Fc fusion)
Summary of the method: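 Competition format: peptide dilutions compete for IL23R-Fc chimera (0.1 μg/ml final, 60 min, room temperature) binding to immobilized human IL23 coated at […] overnight at 4 °C. Read-out is fluorogenic HRP signal from goat anti-hu-IgG1 detecting captured receptor.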

[5] = 50 mM HCl buffer, 50 mM HCl pH 1.2, read-out: Solubility Buffer pH 1.2
[6] = 50 mM phosphate buffer pH 6.5, read-out: Solubility Buffer pH 6.5
[7] = 50 mM phosphate buffer pH 7.4, read-out: Solubility Buffer pH 7.4
[8] = 50 mM phosphate buffer pH 9.0, read-out: Solubility Buffer pH 9.0

Row | SMILES | IC50 [1] | solubility at 2 h [2, 5] | solubility at 2 h [2, 6] | solubility at 2 h [2, 7] | solubility at 2 h [2, 8] | Chemical stability (relative purity loss) Buffer pH 1.2 [3] | Chemical stability (relative purity loss) Buffer pH 6.5 [3] | Chemical stability (relative purity loss) Buffer pH 7.4 [3] | remaining at 1 h, 1 µM (Pepsin) | remaining at 1 h, 1 µM (Pancreatin) | remaining at 2 h, 1 µM (Pancreatin) | remaining at 4 h, 1 µM (Pancreatin) | IC50 [4]
1 | COc1ccc(C[C@@H]2NC(=O)[C@@H]3CSSC[C@H](NC(=O)[C@@H](NC(C)=O)CCCCNC(=O)C[C@@H](C(=O)N[C@@H](CC(N)=O)C(=O)N[C@@H](CC(N)=O)C(N)=O)NC(=O)C(C)(C)NC(=O)[C@H](Cc4ccc5ccccc5c4)NC2=O)C(=O)N[C@@H](CC(N)=O)C(=O)N[C@@H]([C@@H](C)O)C(=O)N[C@@H](Cc2c[nH]c4ccccc24)C(=O)N[C@@H](CCC(N)=O)C(=O)N3)cc1 [compound 7] (Ac-KCNTWQCY(Me)[2Nal][Aib]DNN-NH2; lactam 1-11; disulfide 2-7) | 25 nM | 200 µg/mL (≈ 117 µM) | 160 µg/mL (≈ 93.8 µM) | 160 µg/mL (≈ 93.8 µM) | 150 µg/mL (≈ 87.9 µM) | 28.9% | 1.3% | 6.0% | 0% | 84% | 68% | 47% | –
2 | CC(=O)NCCCC[C@@H]1NC(=O)[C@H](Cc2c[nH]c3c(C)cccc23)NC(=O)[C@H]([C@@H](C)O)NC(=O)[C@H](CC(N)=O)NC(=O)[C@@H]2CSSC[C@H](NC1=O)C(=O)N[C@@H](Cc1ccc(OCCN(C)C)cc1)C(=O)N[C@H](Cc1ccc3ccccc3c1)C(=O)NC1(CCOCC1)C(=O)N[C@H](C(=O)N[C@@H](CC(N)=O)C(=O)N[C@@H](Cc1cccnc1)C(=O)N(C)CC(N)=O)CCC(=O)NCCCCC(=O)N2 [compound 35] | 0.34 nM | ≥ 1070 µg/mL | ≥ 1030 µg/mL | ≥ 1060 µg/mL | ≥ 1140 µg/mL | 10.1% | 1.3% | 1.7% | 92% | 91% | 92% | 92% | –
3 | CC(=O)NCCCC[C@@H]1NC(=O)[C@H](Cc2c[nH]c3c(C)cccc23)NC(=O)[C@H]([C@@H](C)O)NC(=O)[C@H](CC(N)=O)NC(=O)[C@@H]2CSSC[C@H](NC1=O)C(=O)N[C@@H](Cc1ccc(OCCN(C)C)cc1)C(=O)N[C@@H](Cc1ccc3ccccc3c1)C(=O)N[C@@](C)(CC(C)C)C(=O)N[C@H](C(=O)N[C@@H](CC(N)=O)C(=O)N[C@@H](Cc1cccnc1)C(=O)N(C)CC(N)=O)CCC(=O)NCCCCC(=O)N2 [compound 65] ([Ava]CNT[Trp(7-Me)]K(Ac)CY(Me2NCH2CH2)[2Nal][αMeL]EN[3Pal][Sar]-NH2; disulfide 2-7; lactam N-11) | 0.23 nM | ≥ 980 µg/mL | ≥ 910 µg/mL | ≥ 960 µg/mL | – | – | – | – | 86% | 96% | 96% | 92% | –
4 | Cc1cccc2c(C[C@@H]3NC(=O)[C@H]([C@@H](C)O)NC(=O)[C@H](CC(N)=O)NC(=O)[C@@H]4CSSC[C@H](NC(=O)[C@H](CCC(N)=O)NC3=O)C(=O)N[C@@H](Cc3ccc(OCCN(C)C)cc3)C(=O)N[C@@H](Cc3ccc5ccccc5c3)C(=O)NC(C)(C)C(=O)N[C@H](C(=O)N[C@@H](CC(N)=O)C(=O)N[C@@H](Cc3cccnc3)C(=O)N[C@@H](CCCCNC(=O)COCCOCCNC(=O)COCCOCCNC(=O)CC[C@H](NC(=O)CCCCCCCCCCCCCCCCC(=O)O)C(=O)O)C(N)=O)CCCCNC(=O)CCC(=O)N4)c[nH]c12 [compound 71] (CNT[Trp(7-Me)]QCY(Me2NCH2CH2)[2Nal][Aib]KN[3Pal]K([AEEA-AEEA-γGlu-C18 diacid])-NH2; disulfide 1-6; linker N-10 via Suc) | 2.35 nM | – | – | – | – | – | – | – | 76% | – | – | – | 0.31 nM
